In patent US12180187B2, “1-phenyl-5-azinylpyrazolyl-3-oxyalkyl acids and their use for controlling unwanted plant growth” (BAYER AKTIENGESELLSCHAFT, priority 2019, dated 2024):
Where “and” joins values, the source holds several entries; their conditions need not be identical. Equal values may be shown once.

Legend:
POLCO = experiment: Pre-emergence action at 320 g/ha against POLCO; format: in vivo, Fallopia convolvulus (Polygonum convolvulus); conditions: visual scoring after about 3 weeks vs untreated controls; for pest or weed control at 320 g/ha: Fallopia convolvulus, 504 h
Summary of the method: (§1)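 Compounds were sprayed onto soil over sown seeds as emulsions or suspensions with 0.5% additive at a water rate of 600 l/ha. After about 3 weeks in the greenhouse, effect was rated visually as percent (100% = died).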

PHBPU = experiment: Post-emergence action at 320 g/ha against PHBPU; format: in vivo; conditions: visual rating about 3 weeks after treatment vs untreated controls
Summary of the method: (§2)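 Greenhouse-grown plants sprayed post-emergence at the one-leaf stage, 2 to 3 weeks after sowing, with WP or EC formulations plus 0.5% additive at 600 l/ha water, at 320 g/ha. Activity rated visually after about 3 weeks versus untreated controls (100% = plants died, 0% = like control).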

POAAN [1] = experiment: Pre-emergence action against POAAN, 1280 g/ha; format: in vivo, Poa annua; conditions: visual scoring after about 3 weeks vs untreated controls, 100% = plants have died, 0% = like control plants; for pest or weed control at 1280 g/ha: Poa annua, 504 h
Summary of the method: (§3)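 Sandy loam pots, seeds covered with soil; aqueous WP/EC spray on covering soil, 0.5% additive, 600 L/ha. Greenhouse growth, good conditions. Readout: visual % activity at ~3 weeks (0% = like control, 100% = dead).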

STEME = experiment: Pre-emergence action against STEME, 1280 g/ha; format: in vivo, Stellaria media; conditions: scored visually after about 3 weeks vs untreated controls (100% = plants have died); for pest or weed control at 1280 g/ha: Stellaria media, 504 h
Summary of the method: as §3

POAAN [2] = experiment: Post-emergence action against POAAN, 1.28 kg/ha; format: in vivo, Poa annua; conditions: dosage 1280 g/ha, visual rating about 3 weeks after treatment vs untreated controls; for pest or weed control at 1280 g/ha: Poa annua, 504 h
Summary of the method: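 Weeds grown in sandy loam in a greenhouse were sprayed at the one-leaf stage, 2–3 weeks after sowing, with WP or EC formulations in water containing 0.5% additive at 600 L/ha. About 3 weeks later, damage was scored visually versus untreated controls (0% = like control, 100% = dead).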

AMARE [3] = experiment: Pre-emergence action at 320 g/ha against AMARE; format: in vivo, Amaranthus retroflexus; conditions: visual scoring after about 3 weeks vs untreated controls; for pest or weed control at 320 g/ha: Amaranthus retroflexus, 504 h
Summary of the method: as §1

ABUTH = experiment: Pre-emergence action against ABUTH, 1280 g/ha; format: in vivo, Abutilon theophrasti; conditions: scored visually after about 3 weeks vs untreated controls (100% = plants have died)
Summary of the method: as §3

SETVI [4] = experiment: Pre-emergence action at 320 g/ha against SETVI; format: in vivo, Setaria viridis; conditions: visual scoring after about 3 weeks vs untreated controls; for pest or weed control at 320 g/ha: Setaria viridis, 504 h
Summary of the method: as §1

AMARE [5] = experiment: Pre-emergence action against AMARE, 1280 g/ha; format: in vivo, Amaranthus retroflexus; conditions: scored visually after about 3 weeks vs untreated controls (100% = plants have died); for pest or weed control at 1280 g/ha: Amaranthus retroflexus, 504 h
Summary of the method: as §3

ALOMY = experiment: Pre-emergence action at 320 g/ha against ALOMY; format: in vivo, Alopecurus myosuroides; conditions: scored visually after about 3 weeks vs untreated controls (100% = plants have died); for pest or weed control at 320 g/ha: Alopecurus myosuroides, 504 h
Summary of the method: as §1

SETVI [6] = experiment: Post-emergence action at 320 g/ha against SETVI; format: in vivo, Setaria viridis; conditions: visual rating about 3 weeks after treatment vs untreated controls
Summary of the method: as §2

MATIN = experiment: Pre-emergence action against MATIN, 1280 g/ha; format: in vivo, Tripleurospermum inodorum (Matricaria inodora); conditions: scored visually after about 3 weeks vs untreated controls (100% = plants have died); for pest or weed control at 1280 g/ha: Tripleurospermum inodorum, 504 h
Summary of the method: as §3

DIGSA = experiment: Pre-emergence action at 320 g/ha against DIGSA; format: in vivo, Digitaria sanguinalis; conditions: visual scoring after about 3 weeks vs untreated controls; for pest or weed control at 320 g/ha: Digitaria sanguinalis, 504 h
Summary of the method: as §1

ECHCG = experiment: Pre-emergence action against ECHCG, 1280 g/ha; format: in vivo, Echinochloa crus-galli; conditions: visual scoring after about 3 weeks vs untreated controls, 100% = plants have died, 0% = like control plants; for pest or weed control at 1280 g/ha: Echinochloa crus-galli, 504 h
Summary of the method: as §3

SETVI [7] = experiment: Pre-emergence action against SETVI, 1280 g/ha; format: in vivo, Setaria viridis; conditions: visual scoring after about 3 weeks vs untreated controls, 100% = plants have died, 0% = like control plants; for pest or weed control at 1280 g/ha: Setaria viridis, 504 h
Summary of the method: as §3

SMILES	pest or weed control at 320 g/ha (POLCO) [%]	Post-emergence action against PHBPU in % (PHBPU)	pest or weed control at 1280 g/ha (POAAN [1]) [%]	pest or weed control at 1280 g/ha (STEME) [%]	pest or weed control at 1280 g/ha (POAAN [2]) [%]	pest or weed control at 320 g/ha (AMARE [3]) [%]	pest or weed control at 320 g/ha (SETVI [4]) [%]	Post-emergence action against SETVI in % (SETVI [6])	Pre-emergence action against POLCO in % (POLCO) [%]	Pre-emergence action against POAAN (POAAN [1]) [%]	Pre-emergence action against STEME (STEME) [%]	Post-emergence action against POAAN (POAAN [2]) [%]	Pre-emergence action against AMARE in % (AMARE [3]) [%]	Pre-emergence action against SETVI in % (SETVI [4]) [%]	Pre-emergence action against AMARE (AMARE [5]) [%]	Pre-emergence action at 320 g/ha against ALOMY in % (ALOMY) [%]	Pre-emergence action against MATIN (MATIN) [%]	Pre-emergence action against DIGSA in % (DIGSA) [%]	Pre-emergence action against ECHCG (ECHCG) [%]	Pre-emergence action against SETVI (SETVI [7]) [%]	other results
COC(=O)COc1nn(-c2ccccc2F)c(-c2cncnc2)c1Br [VI-004, Methyl {[4-bromo-1-(2-fluorophenyl)-5-(pyrimidin-5-yl)-1H-pyrazol-3-yl]oxy}acetate]	90	80%	100	100	100	100	90	80%													Pre-emergence action against ABUTH (ABUTH): 90%; pest or weed control at 1280 g/ha (AMARE [5]): 100%; pest or weed control at 320 g/ha (ALOMY): 100%; pest or weed control at 1280 g/ha (MATIN): 100%; pest or weed control at 320 g/ha (DIGSA): 100%; pest or weed control at 1280 g/ha (ECHCG): 100%; pest or weed control at 1280 g/ha (SETVI [7]): 100%
COC(=O)COc1nn(-c2ccccc2)c(-c2ccc(F)nc2)c1Br [VII-018]		90%						80%	100	100	100	100	100	100	100	100	90	100	100	100	Pre-emergence action against ABUTH (ABUTH): 90%
COC(=O)COc1nn(-c2ccc(F)cc2)c(-c2cccnc2)c1Br [VII-028]		90%						80%	90	100	100	90	90	100	90	100	100	90	100	100	
CCOC(=O)COc1nn(-c2ccccc2F)c(-c2ccc(F)nc2)c1Br [VII-012, Ethyl {[4-bromo-1-(2-fluorophenyl)-5-(6-fluoropyridin-3-yl)-1H-pyrazol-3-yl]oxy}acetate]	90	90% and 80%	100	90	100	100	100	100% and 80%													pest or weed control at 1280 g/ha (AMARE [5]): 100%; pest or weed control at 320 g/ha (ALOMY): 100%; pest or weed control at 1280 g/ha (MATIN): 100%; pest or weed control at 320 g/ha (DIGSA): 100%; pest or weed control at 1280 g/ha (ECHCG): 100%; pest or weed control at 1280 g/ha (SETVI [7]): 100%
C=CCNC(=O)COc1nn(-c2ccccc2F)c(-c2ccc(F)nc2)c1Br [Example X-001, N-Allyl-2-{[4-bromo-1-(2-fluorophenyl)-5-(6-fluoropyridin-3-yl)-1H-pyrazol-3-yl]oxy}acetamide]	90	80%	100	100	100	90	100	90%													pest or weed control at 1280 g/ha (AMARE [5]): 100%; pest or weed control at 320 g/ha (ALOMY): 100%; pest or weed control at 1280 g/ha (MATIN): 90%; pest or weed control at 320 g/ha (DIGSA): 100%; pest or weed control at 1280 g/ha (ECHCG): 100%; pest or weed control at 1280 g/ha (SETVI [7]): 100%
COC(=O)C(C)Oc1nn(-c2ccccc2)c(-c2cccnc2)c1Cl (stereo not shown) [VII-032]		90%						80%	90	100	100	100	100	90	100	100	90	90	100	100	
O=C(O)COc1nn(-c2ccccc2F)c(-c2ccnc(F)c2)c1Br [VIII-004]		90%						80%	90	100	100	100	100	90	100	100	100	100	100	100	
O=C(O)COc1nn(-c2ccccc2F)c(-c2ccc(F)nc2)c1I [VII-037]		80%						80%	100	100	100	100	100	100	100	100	100	100	100	100	
CN(C)S(=O)(=O)NC(=O)COc1nn(-c2ccccc2F)c(-c2ccc(F)nc2)c1Br [Example X-005]		80%						90%	90	100	100	100	100	100	100	100	100	100	100	100	
CS(=O)(=O)NC(=O)COc1nn(-c2ccccc2F)c(-c2ccc(F)nc2)c1Br [Example X-004]		90%						90%	90	100	100	100	90	100	100	100	100	100	100	100	
